From patent publication US9845330B2, “6-nitro-2,3-dihydroimidazo[2,1-b]oxazoles and a process for the preparation thereof” (priority 2013, dated 2017)
Converted amounts (≈) assume the structure as drawn.

Tests used:
[1] = system: M. tuberculosis XDR (resistant to isoniazid, rifampicin, amikacin and moxifloxacin); assay: microbe, parasite or virus in culture; type: cell-based; conditions: Mycobacterium tuberculosis, 504 h, read-out: MIC M. tb XDR
[2] = system: M. tuberculosis MDR (resistant to isoniazid and rifampicin); assay: microbe, parasite or virus in culture; type: cell-based; conditions: Mycobacterium tuberculosis, 504 h, read-out: MIC M. tb MDR

SMILES: Cc1ccc(NS(=O)(=O)c2ccc(OC[C@@]3(C)Cn4cc([N+](=O)[O-])nc4O3)cc2)cc1 [IIB1, (R)-4-{(2-methyl-6-nitro-2,3-dihydroimidazo[2,1-b]oxazol-2-yl)methoxy}-N-(p-tolyl)benzenesulfonamide]
- MIC [1]: 2 µg/mL (≈ 4.5 µM)
- MIC [2]: 2 µg/mL (≈ 4.5 µM)

SMILES: C[C@]1(COc2ccc(S(=O)(=O)Nc3ccc(OC(F)(F)F)cc3)cc2)Cn2cc([N+](=O)[O-])nc2O1 [IIB2, (R)-4-{(2-methyl-6-nitro-2,3-dihydroimidazo[2,1-b]oxazol-2-yl)methoxy}-N-(4 trifluoromethoxyphenyl)benzenesulfonamide]
- MIC [1]: 2 µg/mL (≈ 3.89 µM)
- MIC [2]: 2 µg/mL (≈ 3.89 µM)

SMILES: C[C@]1(COc2ccc(S(=O)(=O)Nc3ccc(C(F)(F)F)cc3)cc2)Cn2cc([N+](=O)[O-])nc2O1 [IIB3, (R)-4-{(2-methyl-6-nitro-2,3-dihydroimidazo[2,1-b]oxazol-2-yl)methoxy}-N-(4 trifluoromethylphenyl)benzenesulfonamide]
- MIC [1]: 2 µg/mL (≈ 4.01 µM)
- MIC [2]: 2 µg/mL (≈ 4.01 µM)

SMILES: CN(c1ccccc1)S(=O)(=O)c1ccc(OC[C@@]2(C)Cn3cc([N+](=O)[O-])nc3O2)cc1 [IIB4, (R)—N-methyl-4-{(2-methyl-6-nitro-2,3-dihydroimidazo[2,1-b]oxazol-2-yl)methoxy}-N-phenylbenzenesulfonamide]
- MIC [1]: 4 µg/mL (≈ 9 µM)
- MIC [2]: 4 µg/mL (≈ 9 µM)

SMILES: Cc1ccc(N(C)S(=O)(=O)c2ccc(OC[C@@]3(C)Cn4cc([N+](=O)[O-])nc4O3)cc2)cc1 [IIB5, (R)—N-methyl-4-{(2-methyl-6-nitro-2,3-dihydroimidazo[2,1-b]oxazol-2-yl)methoxy}-N-(p-tolyl)benzenesulfonamide]
- MIC [1]: 4 µg/mL (≈ 8.72 µM)
- MIC [2]: 4 µg/mL (≈ 8.72 µM)

SMILES: CN(c1ccc(C(F)(F)F)cc1)S(=O)(=O)c1ccc(OC[C@@]2(C)Cn3cc([N+](=O)[O-])nc3O2)cc1 [IIB6, (R)—N-methyl-4-{(2-methyl-6-nitro-2,3-dihydroimidazo[2,1-b]oxazol-2-yl)methoxy}-N-(p-trifluoromethylphenyl)benzenesulfonamide]
- MIC [1]: 1 µg/mL (≈ 1.95 µM)
- MIC [2]: 1 µg/mL (≈ 1.95 µM)

SMILES: C[C@]1(COc2ccc(S(=O)(=O)N3CCN(c4ccccc4)CC3)cc2)Cn2cc([N+](=O)[O-])nc2O1 [IIC1, (R)-2-{4-(4-phenylpiperazin-1-yl)sulfonylphenoxymethyl}-2,3-dihydro-2-methyl-6-nitroimidazo[2,1-b]oxazole]
- MIC [1]: 1 µg/mL (≈ 2 µM)
- MIC [2]: 1 µg/mL (≈ 2 µM)

SMILES: C[C@]1(COc2ccc(S(=O)(=O)N3CCN(c4ccc(F)cc4)CC3)cc2)Cn2cc([N+](=O)[O-])nc2O1 [IIC2, (R)-2-{4-[4-(4-fluorophenyl)piperazin-1-yl]sulfonylphenoxymethyl}-2,3-dihydro-2-methyl-6-nitroimidazo[2,1-b]oxazole]
- MIC [1]: 2 µg/mL (≈ 3.86 µM)
- MIC [2]: 2 µg/mL (≈ 3.86 µM)

SMILES: C[C@]1(COc2ccc(S(=O)(=O)N3CCN(c4cccc(Cl)c4)CC3)cc2)Cn2cc([N+](=O)[O-])nc2O1 [IIC3, (R)-2-{4-[4-(3-chlorophenyl)piperazin-1-yl]sulfonylphenoxymethyl}-2,3-dihydro-2-methyl-6-nitroimidazo[2,1-b]oxazole]
- MIC [1]: 8 µg/mL (≈ 15 µM)
- MIC [2]: 8 µg/mL (≈ 15 µM)

SMILES: C[C@]1(COc2ccc(S(=O)(=O)N3CCN(c4ccc(OC(F)(F)F)cc4)CC3)cc2)Cn2cc([N+](=O)[O-])nc2O1 [IIC4, (R)-2-{4-[4-(4-trifluoromethoxyphenyl)piperazin-1-yl]sulfonylphenoxymethyl}-2,3-dihydro-2-methyl-6-nitroimidazo[2,1-b]oxazole]
- MIC [1]: 2 µg/mL (≈ 3.43 µM)
- MIC [2]: 2 µg/mL (≈ 3.43 µM)

SMILES: CCOC(=O)N1CCN(S(=O)(=O)c2ccc(OC[C@@]3(C)Cn4cc([N+](=O)[O-])nc4O3)cc2)CC1 [IIC5, (R)-ethyl-{4-[4-(2-methyl-6-nitro-2,3-dihydroimidazo[2,1-b]oxazol-2yl)methoxyphenyl]sulfonyl}piperazine-1-carboxylate]
- MIC [1]: 2 µg/mL (≈ 4.04 µM)
- MIC [2]: 2 µg/mL (≈ 4.04 µM)

SMILES: C[C@]1(COc2ccc(S(=O)(=O)N3CCN(C(=O)c4ccccc4)CC3)cc2)Cn2cc([N+](=O)[O-])nc2O1 [IIC6, (R)-{4-[4-(2-methyl-6-nitro-2,3-dihydroimidazo[2,1-b]oxazol-2yl)methoxyphenyl]sulfonyl}piperazine-1-yl(phenyl)methanone]
- MIC [1]: 2 µg/mL (≈ 3.79 µM)
- MIC [2]: 2 µg/mL (≈ 3.79 µM)

SMILES: C[C@]1(COc2ccc(S(=O)(=O)N3CCCCC3)cc2)Cn2cc([N+](=O)[O-])nc2O1 [IIC7, (R)-2-{4-(piperidin-1-ylsulfonyl)phenoxymethyl}-2,3-dihydro-2-methyl-6-nitroimidazo[2,1-b]oxazole]
- MIC [1]: 1 µg/mL (≈ 2.37 µM)
- MIC [2]: 1 µg/mL (≈ 2.37 µM)

SMILES: C[C@]1(COc2ccc(S(=O)(=O)N3CCC(c4ccccc4)CC3)cc2)Cn2cc([N+](=O)[O-])nc2O1 [IIC8, (R)-2-{4-[(4-phenylpiperidin-1-yl)sulfonyl]phenoxymethyl}-2,3-dihydro-2-methyl-6-nitroimidazo[2,1-b]oxazole]
- MIC [1]: 0.5 µg/mL (≈ 1 µM)
- MIC [2]: 0.5 µg/mL (≈ 1 µM)

SMILES: C[C@]1(COc2ccc(S(=O)(=O)N3CCCC3)cc2)Cn2cc([N+](=O)[O-])nc2O1 [IIC9, (R)-2-{4-(pyrrolidin-1-ylsulfonyl)phenoxymethyl}-2,3-dihydro-2-methyl-6-nitroimidazo[2,1-b]oxazole]
- MIC [1]: 1 µg/mL (≈ 2.45 µM)
- MIC [2]: 1 µg/mL (≈ 2.45 µM)

SMILES: C[C@]1(COc2ccc(S(=O)(=O)N3CCOCC3)cc2)Cn2cc([N+](=O)[O-])nc2O1 [IIC10, (R)-2-{4-(morpholinsulfonyl)phenoxymethyl}-2,3-dihydro-2-methyl-6-nitroimidazo[2,1-b]oxazole]
- MIC [1]: 0.5 µg/mL (≈ 1.18 µM)
- MIC [2]: 0.5 µg/mL (≈ 1.18 µM)
